Structures are written as SMILES. Where two headings read alike, the source gives them in different places.

One compound from publication PMC11079064, “Discovery of a brain penetrant small molecule antagonist targeting LPA1 receptors to reduce neuroinflammation and promote remyelination in multiple sclerosis” (Scientific Reports, 2024) can be followed below.

The subject of the experiment is rat oligodendrocytes. As to the kind of experiment: Oligodendrocyte protection assay (TNFα/IFNγ insult). Format: cell-based. To be noted: TNFα and IFNγ insult. From the text: TNFα and IFNγ are two cytokines that, while not normally expressed in the CNS, are elevated in MS[29]. These cytokines can be secreted by both macrophages and microglia[30],[31]. Receptors for these cytokines (TNFR1, TNFR2, and IFNGR) are expressed in oligodendrocytes. Of note, TNFR1 and 2 have been found on oligodendrocytes bordering MS lesions[23],[32], [33]. Further, although receptor expression for these cytokines on OPCs is unknown, addition of either of these cytokines impact differentiation in isolated OPC cultures[28],[34]. Cultured rat OPCs were differentiated with T3 for 24 h then treated with both TNFα and IFNγ Upon cytokine addition, we observed significant cell death consistent with previous observations (Fig. 6C, left[22],[35]–[37]).
OPC Assay: OPCs were plated in poly-L-lysine (Millipore Sigma, St. Louis, MO) coated 96-well Viewplates™ (Perkin Elmer, Boston, MA) at a seeding density of […] per well. Cells were maintained in media composed of DMEM (Invitrogen, Carlsbad, CA) supplemented with B27 (Invitrogen, Carlsbad, CA), N2 (Invitrogen, Carlsbad, CA), penicillin–streptomycin (Invitrogen, Carlsbad, CA), N-acetylcysteine (Millipore Sigma, St. Louis, MO), forskolin (Millipore Sigma, St. Louis, MO), and 25 ng/ml PDGF-AA (Peprotech, Cranbury, New Jersey) for 24 h at 37°, 5% CO2. Compounds were diluted 10× at a concentration range of 0.001–3 µM. […]

Usually EC50 stands for the concentration at which the effect is half-maximal. Regarding `COc1ccc(NC(=O)N(c2ccccc2C(C)C)C2CCC(C(=O)O)CC2)c(OC(F)F)n1` (centres unmarked) [PIPE-791], the concentration giving a half-maximal response (EC50) runs as follows: (data not shown, read-out: EC50 of total cellular viability with Alamar blue) 39.6 nM; (read-out: EC50 of protection of MBP+ oligodendrocytes) 125 nM.
